{
  "source": "patent US20220089602A1",
  "about": "“COMPOUNDS THAT INDUCE FERROPTIC CELL DEATH” (The Board of Trustees of the University of Illinois, priority 2019, published 2022)",
  "key": {"[1]": {"system": "S. aureus", "experiment": "Antibacterial activity (MIC)", "type": "cell-based", "conditions": "Staphylococcus aureus; gram positive (S. aureus)"}, "[2]": {"experiment": "In vitro glutathione assay (LC-MS)", "type": "physicochemical", "conditions": "100 μM compound, 5 mM glutathione, PBS, 37° C.", "experimental": "To an eppendorf tube added, 245 μL of 1×PBS, 5 μL of 10 mM DMSO stock of ferroptocide or P23 and 250 μL of reduced GSH (5 mM final concentration). Reactions were vortexed briefly and incubated at 37° C. Adduct formation was monitored at the indicated time points (0, 0.5, 1, 2, 3, 24 hr) by mixing an aliquot of 50 μL from the reaction mixture with 50 μL of MeOH before LC/MS analysis."}, "[3]": {"molecular_target": "T1, GSTO1 (Homo sapiens, UniProt P78417)", "T1 construct": "endogenous in cells; host or cells: HCT 116 (and ES-2) cells", "T1 sequence (P78417 whole entry)": "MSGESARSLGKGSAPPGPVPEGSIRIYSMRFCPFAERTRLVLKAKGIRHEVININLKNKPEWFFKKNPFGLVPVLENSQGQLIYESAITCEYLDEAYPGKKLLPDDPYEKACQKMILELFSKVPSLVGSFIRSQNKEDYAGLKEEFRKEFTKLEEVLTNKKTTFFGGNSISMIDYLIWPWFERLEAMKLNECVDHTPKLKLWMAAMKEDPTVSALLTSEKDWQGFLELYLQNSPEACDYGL", "experiment": "Biotin-streptavidin pulldown with P29, competition by ferroptocide, LC/LC-MS/MS", "type": "binding", "conditions": "DMSO/ferroptocide spectral count ratio of P29-labeled enriched proteins", "experimental": "(§1) ES-2 and HCT 116 (20×10^6 cells/flask) were plated in T175 flasks and treated with DMSO or 20 µM ferroptocide for 1 hr followed by treatment with 20 μM P29 for 1 hr. Cells were lysed via sonication (6500 g, 4 min) in DPBS and the soluble proteome was isolated after […] (45000 g, 45 min). Bradford assay was used to determine protein concentration. The soluble protein lysates in DPBS (pH 7.4) (500 μL, 2 mg/mL) were treated with biotin-azide (100 μM, 50× stock in DMSO), TCEP (1 mM, 50× fresh stock in water), TBTA ligand (100 μM, 17× stock in DMSO:t-butanol=1:4), and copper(II) sulfate (1 mM, 50× stock in water) followed by incubation at r.t. for 1 hr. Samples were centrifuged (6500 g, 4 min, 4° C.) and the supernatant was discarded. The pellets were resuspended in cold methanol by sonication (2×) and then were solubilized in DPBS containing 1.2% SDS via sonication and heating (90° C., 5 min). A final SDS concentration of 0.2% was achieved after addition of 5 mL of DPBS to the SDS-solubilized proteome samples. The solution was incubated overnight at 4° C. with 100 μL of streptavidin-agarose beads (ThermoFisher, washed 3× with DPBS to remove storage buffer). Samples were rotated at 22° C. for 2 hr before being washed by 5 mL 0.2% SDS/DPBS, 3×5 mL DPBS, and 3×5 mL water. The beads were pelleted by centrifugation (1400×g, 3 min) between washes.\n(§2) The washed beads were suspended in 500 μL of 6 M urea/DPBS and 10 mM DTT (from 20× stock in water) and heated for 20 min on a 65° C. heat block. Upon addition of iodoacetamide (20 mM from 50× stock in water), samples were allowed to react at 37° C. for 30 min while shaking. Following reduction and alkylation, the beads were pelleted by centrifugation and resuspended in 200 μL of 2 M urea/DPBS, 1 mM CaCl2) (100× stock in water), and sequencing-grade trypsin (2 μg). The bead digestion occurred overnight at 37° C. while shaking. Next day, the beads were pelleted by centrifugation and washed with 2×50 μL water. The washes were combined with the supernatant from the trypsin digestion step, and after addition of formic acid (15 μL) to each sample, they were stored at −20° C. until mass spectrometry analysis.\n(§3) LC/LC-MS/MS analysis was performed on an LTQ-Orbitrap Discovery mass spectrometer (ThermoFisher) coupled to an Agilent 1200 series HPLC. Peptide digests were pressure loaded onto a 250 m fused silica desalting column packed with 4 cm of Aqua C18 reverse phase resin (Phenomenex). The peptides were eluted onto a biphasic column (100 m fused silica with a 5, tip, packed with 10 cm C18 and 4 cm Partisphere strong cation exchange resin (SCX, Whatman) using a gradient 5-100% Buffer B in Buffer A (Buffer A: 95% water, 5% acetonitrile, 0.1% formic acid; Buffer B: 20% water, 80% acetonitrile, 0.1% formic acid). The peptides were then eluted from the SCX onto the C18 resin and into the mass spectrometer using 4 salt steps previously described (Nat. Protoc. 2, 1414-1425, (2007)). The flow rate through the column was set to ˜0.25 μL/min and the spray voltage was set to 2.75 kV. One full MS scan (FTMS) (400-1800 MW) was followed by 8 data dependent scans (ITMS) of the n^th most intense ions. The tandem MS data were searched using the SEQUEST algorithm using a concatenated target/decoy variant of the human UniProt database. A static modification of +57.02146 on cysteine was specified to account for alkylation by iodoacetamide. MS2 spectra matches were assembled into protein identifications and filtered using DTASelect2.0 to generate a list of protein hits with a peptide false-discovery rate of 5%. The mass spectrometry proteomics data have been deposited to the ProteomeXchange Consortium via the PRIDE [1] partner repository with the dataset identifier PXD012805."}, "[4]": {"molecular_target": "T2, KEAP1 (Homo sapiens, UniProt Q14145)", "T2 construct": "endogenous in cells; host or cells: HCT 116 (and ES-2) cells", "T2 sequence (Q14145 whole entry)": "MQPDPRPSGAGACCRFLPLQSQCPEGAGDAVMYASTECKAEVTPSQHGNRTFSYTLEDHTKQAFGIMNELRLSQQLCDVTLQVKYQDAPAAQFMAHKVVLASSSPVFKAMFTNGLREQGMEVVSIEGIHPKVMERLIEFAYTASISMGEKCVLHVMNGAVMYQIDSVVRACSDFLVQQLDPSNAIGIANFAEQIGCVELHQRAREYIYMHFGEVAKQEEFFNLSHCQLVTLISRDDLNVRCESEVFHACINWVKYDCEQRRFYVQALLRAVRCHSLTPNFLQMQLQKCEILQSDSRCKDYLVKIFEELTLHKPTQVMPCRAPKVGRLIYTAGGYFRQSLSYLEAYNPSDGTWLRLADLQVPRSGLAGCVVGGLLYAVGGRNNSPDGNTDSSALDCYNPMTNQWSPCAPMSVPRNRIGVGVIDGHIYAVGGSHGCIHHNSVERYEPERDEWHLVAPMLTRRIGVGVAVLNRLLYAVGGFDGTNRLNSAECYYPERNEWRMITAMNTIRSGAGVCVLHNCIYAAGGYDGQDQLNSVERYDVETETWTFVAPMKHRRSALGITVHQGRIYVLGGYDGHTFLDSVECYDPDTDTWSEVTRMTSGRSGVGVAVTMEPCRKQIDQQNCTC", "experiment": "Biotin-streptavidin pulldown with P29, competition by ferroptocide, LC/LC-MS/MS", "type": "binding", "conditions": "DMSO/ferroptocide spectral count ratio of P29-labeled enriched proteins", "experimental": "as §1, §2, §3"}, "[5]": {"molecular_target": "T3, PTGES2 (Homo sapiens, UniProt Q9H7Z7)", "T3 construct": "endogenous in cells; host or cells: HCT 116 (and ES-2) cells", "T3 sequence (Q9H7Z7 whole entry)": "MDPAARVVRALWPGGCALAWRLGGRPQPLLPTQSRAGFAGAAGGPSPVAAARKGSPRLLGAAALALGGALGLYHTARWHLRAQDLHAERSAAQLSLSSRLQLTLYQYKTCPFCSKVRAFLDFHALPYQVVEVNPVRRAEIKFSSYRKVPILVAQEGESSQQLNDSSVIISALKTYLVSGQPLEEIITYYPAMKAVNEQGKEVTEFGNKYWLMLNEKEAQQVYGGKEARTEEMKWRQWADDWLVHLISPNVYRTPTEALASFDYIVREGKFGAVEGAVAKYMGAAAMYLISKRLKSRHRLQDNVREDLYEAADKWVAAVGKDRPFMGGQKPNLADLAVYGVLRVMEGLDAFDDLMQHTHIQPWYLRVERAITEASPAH", "experiment": "Biotin-streptavidin pulldown with P29, competition by ferroptocide, LC/LC-MS/MS", "type": "binding", "conditions": "DMSO/ferroptocide spectral count ratio of P29-labeled enriched proteins", "experimental": "as §1, §2, §3"}, "[6]": {"molecular_target": "T4, TXNRD2 (Homo sapiens, UniProt Q9NNW7)", "T4 construct": "HCT 116 cells were pre-treated with ferroptocide or DMSO, followed by treatment with P29; endogenous in cells; host or cells: HCT 116 (and ES-2) cells", "T4 sequence (Q9NNW7 37-524)": "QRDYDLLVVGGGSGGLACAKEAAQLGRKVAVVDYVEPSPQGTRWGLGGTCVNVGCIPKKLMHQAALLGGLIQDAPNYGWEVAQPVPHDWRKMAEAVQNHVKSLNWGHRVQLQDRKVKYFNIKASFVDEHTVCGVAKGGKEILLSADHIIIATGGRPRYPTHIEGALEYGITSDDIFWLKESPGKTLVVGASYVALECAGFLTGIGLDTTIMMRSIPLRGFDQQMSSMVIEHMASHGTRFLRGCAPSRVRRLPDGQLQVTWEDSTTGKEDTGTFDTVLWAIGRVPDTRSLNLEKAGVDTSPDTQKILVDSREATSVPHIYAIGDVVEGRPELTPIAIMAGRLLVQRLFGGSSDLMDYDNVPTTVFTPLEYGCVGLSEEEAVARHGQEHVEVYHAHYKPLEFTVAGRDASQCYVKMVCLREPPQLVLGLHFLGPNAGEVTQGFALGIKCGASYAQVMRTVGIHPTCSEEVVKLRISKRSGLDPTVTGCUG", "experiment": "Biotin-streptavidin pulldown with P29, competition by ferroptocide, LC/LC-MS/MS", "type": "binding", "conditions": "DMSO/ferroptocide spectral count ratio of P29-labeled enriched proteins", "experimental": "as §1, §2, §3"}, "[7]": {"molecular_target": "T5, TXNRD3 (Homo sapiens, UniProt Q86VQ6)", "T5 construct": "endogenous in cells; host or cells: HCT 116 (and ES-2) cells", "T5 sequence (Q86VQ6 whole entry)": "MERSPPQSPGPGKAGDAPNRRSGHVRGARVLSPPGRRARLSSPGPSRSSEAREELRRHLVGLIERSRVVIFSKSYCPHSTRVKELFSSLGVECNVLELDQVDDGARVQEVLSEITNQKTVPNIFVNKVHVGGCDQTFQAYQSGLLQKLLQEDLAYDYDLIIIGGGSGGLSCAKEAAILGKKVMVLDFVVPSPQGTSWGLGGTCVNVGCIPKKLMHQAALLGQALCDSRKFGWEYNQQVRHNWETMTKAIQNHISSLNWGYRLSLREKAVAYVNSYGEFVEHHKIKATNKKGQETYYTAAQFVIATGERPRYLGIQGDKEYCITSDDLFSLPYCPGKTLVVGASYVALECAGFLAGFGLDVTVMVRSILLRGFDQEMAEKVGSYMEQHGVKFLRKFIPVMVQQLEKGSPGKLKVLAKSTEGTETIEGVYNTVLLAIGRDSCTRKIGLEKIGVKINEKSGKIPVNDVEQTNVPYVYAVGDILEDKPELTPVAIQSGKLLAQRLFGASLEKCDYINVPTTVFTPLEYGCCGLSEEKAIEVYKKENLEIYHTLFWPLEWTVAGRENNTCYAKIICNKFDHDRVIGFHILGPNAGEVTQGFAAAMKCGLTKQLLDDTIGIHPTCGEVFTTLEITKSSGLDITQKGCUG", "experiment": "Biotin-streptavidin pulldown with P29, competition by ferroptocide, LC/LC-MS/MS", "type": "binding", "conditions": "DMSO/ferroptocide spectral count ratio of P29-labeled enriched proteins", "experimental": "as §1, §2, §3"}, "[8]": {"system": "ES-2 cells", "experiment": "Cellular ROS production (carboxy-H2DCFDA)", "type": "cell-based", "conditions": "1 hr", "experimental": "(§4) ES-2 and HCT 116 cells (3×10^5 cells/mL) were plated in 6-well plates. Cells were treated with DMSO, ferroptocide at the indicated concentrations, Etoposide (100 μM), TBHP (100 μM) for 1 hr and 1.5 hr respectively. Cells were washed with HBSS and incubated in the dark for 25 min with 25 μM carboxy-H2DCFDA probe. Cells were then washed 3× with HBSS and harvested at 1000×g, 3 min. After resuspension in 500 μl HBSS buffer, samples were subjected to flow cytometry to record ten thousand events per sample in FL1 channel in BD LSR II Flow Cytometer (BD Bioscience). FCS express V6 De Novo software was used to generate the histograms."}, "[9]": {"system": "HCT 116 cells", "experiment": "Cellular ROS production (carboxy-H2DCFDA)", "type": "cell-based", "conditions": "1.5 hr", "experimental": "as §4"}},
  "data": [
    {"smiles": "C[C@@H]1CC[C@@]23C[C@H](O)C(=O)[C@@]2(O)[C@]1(C)[C@H](OC(=O)CCl)C[C@@H](C1=CCn2c(=O)n(-c4ccccc4)c(=O)n2C1)[C@@H]3C", "note": "[Compound P18, ferroptocide]", "values": [
      {"measurement": "MIC", "setting": "[1]", "value": "> 64", "unit": "µg/mL"},
      {"measurement": "reactivity with excess glutathione (in words)", "setting": "[2]", "value": "reacts slowly"},
      {"measurement": "Compound remaining (%)", "setting": "[2]; 0.5 hr", "value": 95.1, "unit": "%"},
      {"measurement": "GSH-Ferroptocide adduct (%)", "setting": "[2]; 0.5 hr", "value": 4.9, "unit": "%"},
      {"measurement": "Compound remaining (%)", "setting": "[2]; 1 hr", "value": 81.8, "unit": "%"},
      {"measurement": "GSH-Ferroptocide adduct (%)", "setting": "[2]; 1 hr", "value": 18.2, "unit": "%"},
      {"measurement": "GSH-Ferroptocide adduct (%)", "setting": "[2]; 2 hr", "value": 33.2, "unit": "%"},
      {"measurement": "Compound remaining (%)", "setting": "[2]; 2 hr, listed as Ferroptocide", "value": 66.8, "unit": "%"},
      {"measurement": "Compound remaining (%)", "setting": "[2]; 2 hr, listed as ferroptocide", "value": 67, "unit": "%"},
      {"measurement": "Compound remaining (%)", "setting": "[2]; 3 hr", "value": 61.9, "unit": "%"},
      {"measurement": "GSH-Ferroptocide adduct (%)", "setting": "[2]; 3 hr", "value": 38.1, "unit": "%"},
      {"measurement": "Compound remaining (%)", "setting": "[2]; 24 hr", "value": 27.5, "unit": "%"},
      {"measurement": "GSH-Ferroptocide adduct (%)", "setting": "[2]; 24 hr", "value": 72.5, "unit": "%"},
      {"measurement": "Fold Change", "setting": "[3]", "value": 3.6},
      {"measurement": "Fold Change", "setting": "[4]", "value": 3.1},
      {"measurement": "Fold Change", "setting": "[5]", "value": 18},
      {"measurement": "Fold Change", "setting": "[6]", "value": 2},
      {"measurement": "Fold Change", "setting": "[7]", "value": 7.4},
      {"measurement": "ROS production", "setting": "[8]", "value": "Dose-dependent ROS production"},
      {"measurement": "ROS production", "setting": "[9]", "value": "Dose-dependent ROS production"}
    ]}
  ]
}
